Here are results for ten substances from patent US6214805A, “RNase L activators and antisense oligonucleotides effective to treat RSV infections” (priority 1997, dated 2001).

Where “and” joins values, the source holds several entries; their conditions need not be identical. Identical values can stand only once.

Data set [1] has as its system RSV strain A2. Kind of data set: Inhibition of RSV replication in RSV-infected 9HTE cells, virus plaque assay on CV-1 cells at 36 h post-infection. Format: cell-based, Respiratory syncytial virus. The following applies: 9HTE cells; for % Inhibition of RSV replication: M.O.I. 2.0, 36 hrs post-infection. The source says: To develop 2-5A antisense chimeras with the potential to block RSV replication, an oligonucleotide binding site in the viral RNA polymerase (RSV L) mRNA, which encodes a low abundance message that is absolutely required for RSV replication was selected. The first chimera synthesized and evaluated was pA4 -antiRSV/(8490-8509). The binding sites for the chimeric oligonucleotide's antisense domain are to the transcripts of nucleotides 8490-8509 in the RSV genome, which spans the translation start codon for the L protein, and to nucleotides 8490-8509 of the antigenomic strand (the template for reproduction of the genome). Since to function as an effective treatment, a candidate agent must be able to inhibit viral replication subsequent to diagnosis, the anti-RSV effect of the 2-5A antisense chimera was determined on human tracheal epithelial cells, 9HTE, with treatments beginning either 4 h before RSV infection (pre-/post-infection treatments) or 2 h following infection (post-infection treatments). In the post-infection treatments, pA4 -antiRSV/([…]), was added at t+2, t+14 and t+26, (numbers represent time in h relative to time of infection, 0) For pre-infection treatment, pA4 -antiRSV/(8490-8509) (10 μM final concentration), was added at t-4, and t0 in addition to […]; t+14 and t+26. Virus harvested from control and oligonucleotide-treated 9HTE cells was measured by infecting CV-1 cells and subsequently counting viral plaques. […] On the basis of these experiments, all subsequent experiments were performed with post-infectiontreatments only. Additionally, these experiments indicate the potential use of these compounds as a treatment for active infection as compared to a prophylactic measure.
The human tracheal epithelial cell line, 9HTE, (Gruenert et al., 1988) and CV-1 cells, (American Type Culture Collection, Rockville, Md., CCI#70) a green monkey kidney cell line which is highly permissive to RSV infection, were cultured in minimal essential medium (MEM) supplemented with 10% (v/v) fetal bovine serum (FBS), 2 mM L-glutamine, 1× MEM amino acids solution, 1× MEM non-essential amino acids solution, 100 U/ml penicillin, 100 μg/ml streptomycin and 0.25 μg/ml amphotericin B ("culture medium") (all reagents from Gibco BRL, Bethesda, Md.). RSV strain A2 (ATCC No. VR1302) was propagated in CV-1 cells. CV-1 monolayers were infected at a multiplicity of infection (M.O.I.) of 0.2 and cultured 46 h in MEM, 2% FBS, 1× Penicillin/Streptomycin (PS) in 5% CO2, 95% O2 at 37° C. Cells were then washed 2 times in MEM and subsequently covered in MEM, 2% FBS, 1× PS, 50 mM HEPES (pH7.5), 100 mM Mg(SO4). After 2 h at 37° C., cells were scraped and sonicated as previously described (Panuska et al., 1995). Aliquots (1 ml each) of cell sonicates were flash frozen in ethanol/dry ice within 20 min of scraping. Several aliquots were then thawed and titered by a plaque assay on CV-1 cells as previously described (Cirino et al., 1993). The range of virus yield from this procedure was 2 to 7×10^6 plaque forming units (pfu) per ml.
Infection of 9HTE cells was performed as previously described (Merolla et al., 1994). Briefly, confluent monolayers were exposed to RSV diluted in MEM, 2% FBS, for 2 h at 37° C. in 5% CO2, 95% O2. After exposure, cells were washed two times with serum-free MEM media and then fresh culture media (with 10% FBS) was added. Oligonucleotides were either added 4 h prior to infection (t-4) or immediately after infection (t+2) and also at t+14 and t+26. Cells were harvested for plaque assays at 36 h post-infection to determine viral titers as previously described (Cirino et al., 1993). Cells were washed twice to remove any residual antisense and were then scraped in MEM containing 2% FBS, 1× PS. 9HTE cells were sonicated for 20 sec on ice then the extracts were serially diluted and transferred to a confluent monolayer of CV-1 for quantitation of infectious viral particles. […]

Data set [2] deals with RSV strain A2. Kind of data set: Neutral red uptake assay of CPE inhibition in HEp-2 cells. The format is cell-based, Respiratory syncytial virus. The settings on record: Table 11, neutral red, HEp2; for EC50: read-out: EC50. As for the experimental part:
(§1) This assay was performed by a modified method as described by Cavenaugh et al. (Cavenaugh et al. 1990, Invest. New Drugs 8:347-354). Briefly, medium was removed from each well of a plate scored for CPE from a CPE inhibition assay, 0.2 ml of neutral red (0.034% in PSS) was added to each of the wells of that plate and the plate incubated for 2 hr at 37° C. in the dark. The neutral red solution was removed from the wells and the wells rinsed twice with PBS (pH 7.4). Equal volumes (0.1 ml) of absolute ethanol and Sorenson citrate buffer (0.1 M sodium citrate, 0.1 M HCI, pH 4.2) were mixed together and added to each well. Plates were incubated in the dark for 30 min. at room temperature to solubilize the dye. The plates were then gently mixed on a 96-well plate adapted vortexer for 1 min. Absorbances at 540 nm and 450 nm were read with a microplate reader (Bio-Tek EL 1309; Bio-Tek Instruments, Inc. Winooski, Vt.). Absorbance values were expressed as percents of untreated controls and EC50 and IC50 values were calculated by regression analysis.

The subject of data set [3] is RSV strain A2. Kind of data set: CPE inhibition assay in HEp-2 cells. Format: cell-based, Respiratory syncytial virus. The settings on record: Table 10, CPE, HEp2; for EC50: read-out: EC50. As for the experimental part:
The CPE inhibition assay used in this study was performed as described by Sidwell and Huffman (Sidwell et al., 1971, Appl. Microbiol. 22:7979-7801) with slight modifications. Varying concentrations of test compounds were added to each plate containing near confluent cell monolayers (1×10^5 cells/well) followed immediately by the addition of virus at a multiplicity of infection (MOI)=0.01, and then incubated at 37° C. […] All compounds were assayed for virus inhibition in quadruplicate and for cytotoxicity in duplicate. For each compound, two wells were set aside as uninfected, untreated cell controls per test and four wells per test received virus only and represented controls for virus replication. […] For all CPE-based assays, the 50% effective concentration (EC50) was calculated by regression analysis using the means of the CPE ratings at each concentration of compound.

Data set [4] relates to Hep-2 Cells. Kind of data set: Cytotoxicity by morphological changes in HEp-2 cells (CPE inhibition assay). The format is cell-based, human. The following applies: Table 10, CPE, HEp2. How it is done: (§2) Embryonic African green monkey kidney cells (MA-104) were obtained from BioWhittaker, Inc. (Walkersville, Md.). HEp-2 cells were propagated from a human epidermoid carcinoma of the larynx (American Type Culture Collection, ATCC; Rockville, Md.). The cells were grown in minimal essential medium. (MEM, Gibco-BRL, Gaitherburg, Md.) supplemented with 0.1% NaHCO3 and 10% fetal bovine serum (FBS, Hyclone Laboratories, Logan Utah.). When performing antiviral assays, serum was reduced to 2% and 50 μg/ml gentamicin (Sigma Chemical Company, St. Louis, Mo.) was added to the medium.
Morphological changes due to compound cytotoxicity were graded on a scale of 0-5; grade 5 was defined as 100% cytotoxicity. The 50% cytotoxic dose (IC50 was calculated by regression analysis. A selective index (S.I.) was calculated for each compound [S.I.=(IC50)/(EC50 ].

For data set [5], the system named is Hep-2 Cells. Kind of data set: Neutral red uptake assay of cytotoxicity in HEp-2 cells. The format is cell-based, human. The following applies: Table 11, neutral red, HEp2. As for the experimental part: as §2, §1
Where [6] appears, read: 6.6 μM oligonucleotide/treatment at t+2, t+14, t+26 h.
Setting [7] is: 9.9 μM oligonucleotide/treatment at t+2, t+14, t+26 h.
Where [8] appears, read: 3.3 μM oligonucleotide/treatment at t+2, t+14, t+26 h.
Where [9] appears, read: q.d. 1 day (added along with virus, never replenished).

Consider “A2'p(A2'p)3 -[(Bu)p]2 -(5'aat ggg atc cat ttt gtc c3'-3'c5') [A4-antiRSV3'-3'C/(8490-8509)]”, for which the “% Inhibition of RSV replication” value came out at 20% with RSV strain A2 [1] (setting [6]) and 28.3% with RSV strain A2 [1] (setting [7]).

Take “pA2'p(A2'p)3 -[(Bu)p]2 -(3'ccc tgt ttt acc tag ggt aa5') [pA4-3'antiRSV5'/(8490-8509)]”: in the data set with RSV strain A2 [1] (setting [7]), the “% Inhibition of RSV replication” value turned out to be 69%.

For “pA2'p(A2'p)3 -[(Bu)p]2 -(5'aat ggg atc cat ttt gtc c3'-3'c5') [pA4-antiRSV3'-3'C/(8490-8509)]”, the “% Inhibition of RSV replication” value in the data set on RSV strain A2 [1] (setting [8]) is 2%; in the data set with RSV strain A2 [1] (setting [6]), 64.3% and 38.8%; in the data set with RSV strain A2 [1] (setting [7]), 64.8% and 74%.

Take “pA2'p(A2'p)3 -[(Bu)p]2 -(5'aat ggg atc cat ttt gtc cc3') [pA4-antiRSV/(8490-8509)]”: the “% Inhibition of RSV replication” value came out at 3% in the data set with RSV strain A2 [1] (setting [8]), 38.8% in the data set with RSV strain A2 [1] (setting [6]) and 64.8% with RSV strain A2 [1] (setting [7]). Moreover, the “inhibition of RSV replication” value in the data set on RSV strain A2 [1] (post-infection treatment, 10 μM at t+2, t+14, t+26) is “about 70%”; in the data set on RSV strain A2 [1] (pre-/post-infection treatment, 10 μM at t-4, t0 and after infection), “about 70%”.

Turning to “sp(5'A2')4 BupBupd(GsAsTsAGAAATAGAAAsGsCsA) (antisense GATAGAAATAGAAAGCA; chemistry not fully specified) [MP426, 2-5A-antisense control with scrambled antisense domain of MP351]”, the SI is on record as > 11 with RSV strain A2 [2] (B.I.D. 2 days); 3.2 with RSV strain A2 [2] (B.I.D. 3 days); > 32 with RSV strain A2 [3] (B.I.D. 2 days); 16 in the data set on RSV strain A2 [3] (B.I.D. 3 days); 3.2 in the data set with RSV strain A2 [3] (B.I.D. 4 days); > 1 in the data set with RSV strain A2 [3] (q.d. 3 days). Moreover, the SI in the data set on RSV strain A2 [3] (q.d. 4 days) is recorded as > 3.2. Besides, the EC50 (as a rule, the concentration that produces a half-maximal response) is 0.3 µM in the data set with RSV strain A2 [2] (B.I.D. 2 days); > 3.2 µM in the data set on RSV strain A2 [2] (B.I.D. 4 days); > 3.2 µM with RSV strain A2 [2] (setting [9]); > 3.2 µM in the data set with RSV strain A2 [2] (q.d. 3 days); > 3.2 µM in the data set with RSV strain A2 [2] (q.d. 4 days); 0.2 µM with RSV strain A2 [3] (B.I.D. 3 days). Also, the EC50 in the data set on RSV strain A2 [3] (setting [9]) was > 3.2 µM; in the data set with RSV strain A2 [3] (q.d. 3 days) it was 3.2 µM. Moreover, the IC50 (in general, the concentration needed to halve the response being measured) in the data set on Hep-2 Cells [4] (B.I.D. 2 days) is > 3.2 µM; with Hep-2 Cells [4] (B.I.D. 3 days), 3.2 µM; in the data set with Hep-2 Cells [4] (B.I.D. 4 days), 3.2 µM; in the data set with Hep-2 Cells [4] (setting [9]), > 3.2 µM; in the data set on Hep-2 Cells [4] (q.d. 3 days), > 3.2 µM; in the data set on Hep-2 Cells [4] (q.d. 4 days), > 3.2 µM. Moreover, the IC50 was > 3.2 µM in the data set on Hep-2 Cells [5] (B.I.D. 2 days); 3.2 µM in the data set on Hep-2 Cells [5] (B.I.D. 3 days); 3.2 µM with Hep-2 Cells [5] (B.I.D. 4 days); > 3.2 µM with Hep-2 Cells [5] (setting [9]); 3.2 µM in the data set with Hep-2 Cells [5] (q.d. 3 days); 3.2 µM with Hep-2 Cells [5] (q.d. 4 days).

Regarding “spA2'p(A2'p)3 -[(Bu)p]2 -(5'aat ggg atc cat ttt gtc cc3') [spA4-antiRSV/(8490-8509)]”, the “% Inhibition of RSV replication” value in the data set on RSV strain A2 [1] (setting [8]) was 16.5%; in the data set with RSV strain A2 [1] (setting [6]), 71%; in the data set on RSV strain A2 [1] (setting [7]), 94%.

“spA2'p(A2'p)3 -[(Bu)p]2 -(5'ata gtg tgt tct ttt gat t3'-3'a5') [spA4-antiRSV3'-'3A/(8251-8270)]”: the “% Inhibition of RSV replication” value is on record as 86.7% in the data set with RSV strain A2 [1] (setting [8]) and 92% with RSV strain A2 [1] (setting [6]).

As to “spA2'p(A2'p)3 -[(Bu)p]2 -(5'ctc tga gaa aga gat aa3'-3'c5') [spA4-antiRSV3'-3'C/(8561-8578)]”, in the data set with RSV strain A2 [1] (setting [8]), the “% Inhibition of RSV replication” value came out at 57%.

Regarding “spA2'p(A2'p)3 -[(Bu)p]2 -(5'gat aag gac cat tga ata t3'-3'g5') [spA4-antiRSV3'-3'G/(8599-8618)]”, the “% Inhibition of RSV replication” value with RSV strain A2 [1] (setting [8]) is 43% and 44%.

For the substance “spA2'p(A2'p)3 -[(Bu)p]2 -(5'gat tga aat ata gtg tgt3'-3't5') [spA4-antiRSV3'-3'T/(8261-8279)]”, the “% Inhibition of RSV replication” value worked out at 78% in the data set with RSV strain A2 [1] (setting [8]), 87% in the data set with RSV strain A2 [1] (setting [6]) and 87% in the data set on RSV strain A2 [1] (setting [7]).
